Test results as given in US9006191B2, “Silencing of polo-like kinase expression using interfering RNA” (Protiva Biotherapeutics, Inc., priority 2007, dated 2015).
Read-outs that look alike come from different tables or passages of the source. m = 2'-O-methyl; r = 2'-OH (RNA)

What was measured:
IFIT1 mRNA, serum IFNα [1] = conditions: mouse, in vivo, iv
HeLa cells = experiment: Monoastral spindle formation in HeLa cells; type: cell-based, human; conditions: 20 nM, 16 h
Experimental: HeLa cells were treated for 16 h with (A) Luc or (B) KSP2263 siRNA at 20 nM then immunostained for α-tubulin (FITC). DNA was stained with DAPI and flourescent images captured and overlayed.

IFIT1 mRNA, serum IFNα [2] = experiment: In vivo immune stimulation assay in Balb/c mice (IFIT1 mRNA, serum IFNα); conditions: SNALP-formulated siRNA IV; for IFIT1 mRNA induction in liver and spleen: 4 h
Neuro2a liver tumors = experiment: Intrahepatic Neuro2a tumor model (survival); type: in vivo, mouse; conditions: A/J mice, hepatic Neuro2a tumors, 4 mg/kg Q3d x5
Experimental: PLK1424-2/A treatment confers significant survival advantages in scid/beige mice bearing hepatic Hep3B tumors. Mice were administered SNALP-formulated PLK1424-2/A (n=15) or Luc-U/U (n=8) at 6×2 mg/kg, intravenous twice weekly (d 10 to d 28). (A) Body weights (mean+SD) over the dosing period expressed as % of initial weight on d 10. (B) Kaplan-Meier plot of days to euthanization due to tumor burden. […] (p=0.03, Log-rank Mantel Cox test). (C) Residual hepatic Hep3B tumor burden in mice 24 h after final administration of PLK1424-2/A siRNA (5×2 mg/kg siRNA on d 8, 11, 14, 18 & 21). Bars represent hGAPDH mRNA/mg liver of individual mice (mean+/−SD of triplicate analyses) determined by human-specific bDNA assay (No tumor=livers from non-tumor seeded mice). […]
Intrahepatic tumor models. […] Mice were allowed to recover from anaesthesia in a sterile cage and monitored closely for 2-4 h before being returned to conventional housing.
Eight to 11 days after tumor implantation, mice were randomized into treatment groups. siRNA SNALP formulations or PBS vehicle control were administered by standard intravenous injection via the lateral tail vein, calculated on a mg siRNA/kg basis according to individual animal weights (10 mL/kg injection volume). Body weights were then monitored throughout the duration of the study as an indicator of developing tumor burden and treatment tolerability. […]

mouse KSP mRNA [3] = experiment: 5′ RACE-PCR in Neuro2a cells; type: cell-based; conditions: 24 h
Experimental: (A) HT29 cells were treated with 10 nM SNALP-formulated PLK1424, Luc siRNA or PBS. RNA was isolated 24 hours after transfection and assayed for the specific PLK-1 mRNA cleavage product by 5′-RACE-PCR. (B) Neuro2a cells were treated with SNALP-formulated KSP2263, PLK773 siRNA or PBS. RNA was isolated 24 hours after transfection and assayed for the specific mouse KSP mRNA cleavage product by 5′-RACE-PCR.
The detection of specific RNA cleavage products generated by RISC-mediated hydrolysis of target mRNA is the definitive marker confirming RNAi as the mechanism of gene silencing (39, 40). Activated RISC cleaves target mRNA precisely between the nucleotides complementary to positions 10 and 11 of the siRNA AS strand generating an mRNA cleavage product that is unique to the siRNA sequence. This can be detected in cells using an appropriately designed 5′-rapid amplification of cDNA ends-PCR method (RACE-PCR). We developed RACE-PCR assays to detect the PLK1424-specific cleavage product of human PLK-1 mRNA and the KSP2263-specific cleavage product of mouse KSP mRNA.
(§1) 5′ RNA Ligase Mediated Rapid Amplification of cDNA ends (5′ RLM RACE).

Neuro2a tumors = experiment: Hepatic Neuro2a tumor histology (H&E, quantitative); type: in vivo, mouse
Experimental: Hepatic Neuro2a tumor histology 24 h after a single intravenous administration of (A) Luc-U/U or (B) KSP2263-U/U siRNA formulated in SNALP (2 mg/kg siRNA). Images are at 200× magnification and representative of tumors from at least 6 individual mice. […] (C) Quantitative histology of H&E stained tumor tissues from mice treated with SNALP-formulated KSP2263-U/U at 4, 2, 1, or 0.5 mg/kg siRNA. Tumor cells with condensed chromatin structures were scored positive and calculated as a % of total tumor cells taken from 10 fields of view. Positive cells included aberrant and typical mitotic and apoptotic figures. Values are mean+SD of 3 mice. Mean SNALP particle size and (polydispersity) were 88 (0.07) and 82 (0.08) nm for KSP2263 and Luc, respectively.
Histology. Tumors were harvested from mice 24 h after siRNA administration and fixed directly in 10% buffered formalin. Tissues were then processed as paraffin embedded tissue sections and stained with Hematoxylin and Eosin using conventional histological techniques. Quantitative analysis of stained sections was performed by counting the number of mitotic/apoptotic cells displaying condensed chromatin structures as a percentage of total tumor cells. Values for each tumor were derived from means of 10 fields of view at 400× magnification.

mouse KSP mRNA [4] = experiment: 5′ RACE-PCR of hepatic Neuro2a tumors; type: in vivo
Excerpt: as §1

PLK-1 mRNA = experiment: 5′ RACE-PCR of Hep3B liver tumors; type: in vivo, human; conditions: hepatic Hep3B tumors, single 2 mg/kg IV dose
Excerpt: as §1

Hep3B liver tumors = experiment: Intrahepatic Hep3B tumor model (survival, body weight, tumor burden); type: in vivo; conditions: scid/beige mice, 2 mg/kg IV twice weekly for 3 weeks
Experimental: SNALP containing PLK-1 siRNA (“1:57” SNALP formulation: 1.4% PEG-cDMA; 57.1% DLinDMA; 7.1% DPPC; and 34.3% cholesterol) were tested for their effects on the survival of […] mice bearing Hep3B liver tumors.
Intrahepatic tumor models. Liver tumors were established in mice by direct intrahepatic injection of Hep3B or Neuro2a tumor cells (45). Female scid/beige mice (Charles River Laboratories) and male A/J mice (Jackson Laboratories) were used as hosts for the Hep3B and Neuro2a tumors, respectively. Animals received Anafen by SC injection immediately prior to surgery. Individual mice were anaesthetized by isoflourane gas inhalation and eye lube applied to prevent excessive eye drying. While maintained under gas anaesthesia, a single 1.5 cm incision across the midline was made below the sternum and the left lateral hepatic lobe exteriorized. 1×10^6 Hep3B cells or 1×10^5 Neuro2a cells suspended in 25 μL PBS were injected slowly into the lobe at a shallow angle using a Hamilton syringe and 30G needle. A swab was then applied to the puncture wound to stop any bleeding prior to suturing. Mice were allowed to recover from anaesthesia in a sterile cage and monitored closely for 2-4 h before being returned to conventional housing.
Eight to 11 days after tumor implantation, mice were randomized into treatment groups. siRNA SNALP formulations or PBS vehicle control were administered by standard intravenous injection via the lateral tail vein, calculated on a mg siRNA/kg basis according to individual animal weights (10 mL/kg injection volume). Body weights were then monitored throughout the duration of the study as an indicator of developing tumor burden and treatment tolerability. For efficacy studies, defined humane endpoints were determined as a surrogate for survival. Assessments were made by qualified veterinary technicians based on a combination of clinical signs, weight loss, and abdominal distension to define the day of euthanization due to tumor burden.
Measurement of human PLK-1 and GAPDH mRNA in tumor tissues. Tumors were harvested directly into RNALater and stored at 4° C. until processing. 100 mg tumor tissue was homogenized in Tissue and Lysis Solution (EpiCentre Biotechnologies) containing […] proteinase K (EpiCentre) in a Fastprep tissue homogenizer followed by incubation in a 65° C. waterbath for 15 min and centrifuged to clarify lysates. mRNA analysis in FIG. 33B was performed on purified RNA isolated according the 5′-RACE-PCR protocol. Human PLK-1 and GAPDH mRNA were measured in tumor lystes by the QuantiGene bDNA assay (Panomics) as per the manufacturer's instructions (Quantigene 1.0 Manual). […] Data were expressed as mean PLK-1:GAPDH ratio+/−SD of individual animals. Tumor burden was assessed by homogenizing the complete liver from tumor bearing mice and measuring the total hGAPDH signal (RLU's) within the liver. Values were expressed as hGAPDH RLU/mg total liver.

[5] = tested on: Flt3-ligand derived murine dendritic cells; experiment: Cytokine induction in murine Flt3L dendritic cell cultures (ELISA); type: cell-based, mouse; conditions: murine Flt3L DC, 5 μg/ml siRNA in SNALP, 24 h
Experimental: Cytokine Induction Assays: Flt3-ligand derived murine dendritic cells (Flt3L DC) were generated as described by Gilliet et al. (J. Exp. Med., 195:953-958) using 100 ng/ml murine Flt3-ligand (PeproTech Inc.; Rocky Hill, N.J.) supplemented media. Femurs and tibiae of female Balb/C mice were isolated and rinsed in sterile PBS. The ends of bones were cut and marrow harvested in complete media (RPMI 1640, 10% heat inactivated FBS, 1% penicillin/streptomycin, 2 mM L-glutamine, 1 mM sodium pyruvate, 25 mM HEPES, 50 μM 2-mercaptoethanol). Bone marrow cells were passed through a 70 μm strainer, centrifuged at 1000 rpm for 7 minutes, and resuspended in complete media supplemented with 100 ng/ml murine Flt3L to 2×10^6 cells/ml. 2 mls of cells were seeded in 6-well plates and 1 ml fresh complete media added every two or three days. On day 9 of culture, non-adherent cells were washed in complete media and plated into 96-well plates at concentrations ranging from 0.5 to 2.5×10^5 cells/well. 2′OMe-modified and unmodified (0/0) PLK-1 SNALP were diluted in PBS and added to Flt3L DC cultures at 5 μg/ml siRNA. Cells were incubated for 24 hours at 37° C. before supernatants were assayed for cytokines by ELISA.
Cytokine ELISA: Interferon-α and IL-6 in culture supernatants were quantified using sandwich ELISA kits according to manufacturer's instructions. These were mouse IFN-α (PBL Biomedical; Piscataway, N.J.) and mouse IL-6 (eBioscience; San Diego, Calif.).
In vitro immune stimulation assays. Mouse Flt3L dendritic cell cultures were generated as described previously (65). In brief, bone marrow from Balb/C mice was harvested in complete media (RPMI 1640, 10% FBS, 1% penicillin/streptomycin, 2 mM L-glutamine, 1 mM sodium pyruvate, 25 mM HEPES, 50 uM 2-mercaptoethanol), passed through a 70 micron strainer and resuspended to 2×10^6 cells/mL in complete media supplemented with 100 ng/mL murine Flt3L (Peprotech). Cells were seeded in 6-well plates and 1 mL fresh Flt3L media added every three days. On day 9 of culture, non-adherent cells were plated into 96 well plates at a concentration 2×10^5 cells/well. Formulated siRNA were diluted in PBS and added to the cells for 24 h before supernatants were assayed for cytokines by ELISA.
Cytokine ELISA. All cytokines were quantified using sandwich ELISA kits.

[6] = Multi-dose toxicity study in CD1 ICR mice; type: in vivo, mouse; conditions: 2 mg/kg twice weekly, after 15 and 29 days
Experimental: Groups of CD1 ICR mice were administered PBS, PLK773-1/B, or Luc-U/U SNALP to assess potential cumulative toxicities associated with either PLK-1 silencing or the lipid vehicle. Mice were treated twice weekly at 2 mg/kg siRNA, equivalent to the efficacious dosing regimen in tumor studies. […] All values are mean+/−SD (n=6). No changes in red blood cell parameters were observed.

KSP2263-U/U: 2′OMe-modified KSP2263 duplex, SEQ ID NO:227/229 (chain 1 CNGAAGACCNGAAGACAANTT; chain 2 AUUGUCUNCAGGNCUNCAGTT; siRNA; 2'-O-methyl modifications at selected positions, key for n not given here)
serum IFNα / serum cytokine response (IFIT1 mRNA, serum IFNα [1]): no measurable IFNα | monoastral spindle phenotype (HeLa cells): induced the distinct monoastral nuclear phenotype in vitro | IFIT1 mRNA induction in liver and spleen (IFIT1 mRNA, serum IFNα [2]): no measurable IFNα or increase in IFIT1 mRNA in the liver or spleen | median survival time (Neuro2a liver tumors): 28 days | KSP mRNA cleavage product by 5′ RACE-PCR (mouse KSP mRNA [3]): predicted 102 bp RACE-PCR product was amplified | Neuro2a tumor histology (aberrant mitotic figures) (Neuro2a tumors; 24 h after SNALP administration): significant numbers of tumor cells with aberrant mitotic figures typical of monoastral and apoptotic cells | tumor cells with condensed chromatin structures, % of total tumor cells (Neuro2a tumors; 24 h post siRNA treatment): ~13% | RNAi-mediated KSP mRNA cleavage by RACE-PCR (mouse KSP mRNA [4]): confirmed the specific induction of RNAi-mediated KSP mRNA cleavage within tumors

Luc-U/U: control 2′OMe siRNA targeting luciferase, SEQ ID NO:233/234 (chain 1 GANUANGNCCGGNNANGNAUU; chain 2 UACANAACCGGACANAANCUU; 2'-O-methyl modifications at selected positions, key for n not given here) [reference compound]
serum IFNα / serum cytokine response (IFIT1 mRNA, serum IFNα [1]): no measurable IFNα | IFIT1 mRNA induction in liver and spleen (IFIT1 mRNA, serum IFNα [2]): no measurable IFNα or increase in IFIT1 mRNA in the liver or spleen | specific cleavage product of PLK-1 mRNA by 5′ RACE-PCR (PLK-1 mRNA): not evident | median survival time (Hep3B liver tumors): 32 days | time until first euthanization (Hep3B liver tumors; days after tumor seeding): 28 days

PLK773-1/B: 2′OMe-modified PLK773 duplex, SEQ ID NO:220/223 (chain 1 AGACCUACCUCCGGAUCAAUU; chain 2 UUGAUCCGNAGNUAGGNCUUU; siRNA; chain 1: sugars from the 5' end r1 m1 r10 m1 r8, backbone not given here; chain 2: chemistry not given here)
serum IFNα / serum cytokine response (IFIT1 mRNA, serum IFNα [2]; 4-6 h): no measurable IFNα | IFIT1 mRNA induction in liver and spleen (IFIT1 mRNA, serum IFNα [2]): no measurable IFNα or increase in IFIT1 mRNA in the liver or spleen | cytokine (IL-6, IFN-α) response [5]: completely abrogated | clinical chemistry and blood counts [6]: no significant changes in serum liver enzymes, total wbc, lymphocyte and neutrophil counts, platelet numbers, or rbc parameters
